Data published in US6770596B1, “Fused tricyclic compounds, process for their preparation, and herbicidal compositions containing them” (Ishihara Sangyo Kaisha Ltd., priority 2002, dated 2004).

Key:
Format in all cases: in vivo
[1] = system: redroot pigweed (Amaranthus retroflexus, AMR); assay: Pre-emerge test, redroot pigweed; conditions: 250 g ai/ha, 14 days after application, rating scale 0-100 (0 no damage, 100 complete death)
Description: (§1) A standard greenhouse herbicide activity screening system was used to evaluate the herbicidal efficacy and crop safety of these test compounds. Seven broadleaf weed species including redroot pigweed (Amaranthus retroflexus, AMR), velvetleaf (Abutilon theophrasti, ABT), sicklepod (Cassia obtusifolia, CAO), ivyleaf morningglory (Ipomoea hederacea, IPH), lambsquarters (Chenopodium album, CHA), common ragweed (Ambrosia artemisiifolia L., AML), and cocklebur (Xanthium strumariunt, XAS) were used as test species. Four grass weed species including green foxtail (Setaria viridis, SEV), barnyardgrass (Echinachloa crus-galli, ECC), johnsongrass (Sorghum halepense, SOH), and large crabgrass (Digitaria sanguinalis, DIS) were also used. In addition, four crop species, field corn (Zea mays L., var. Dekalb 535, CORN), soybean (Glycine max L., var. Pella 86, SOY), upland rice (Oryza sp., var.Tebonnet, RICE), and wheat (Triticum aestivum) were included all plants were grown in 10 cm square plastic pots which were filled with a sandy loam soil mix.
(§2) For pre-emerge tests, seeds were planted one day prior to application of the test compounds. All test compounds were dissolved in acetone and applied to the test pots in a volume of 187 l/ha. Test materials were applied at rates ranging from 8 g ai/ha to 1000 g ai/ha using a track sprayer equipped with a TJ8001E even flow flat fan spray nozzle. This application simulates a typical commercial field herbicide application.
(§3) At 14 days after application of the test materials, phytotoxicity ratings were recorded. A rating scale of 0-100 was used for both pre and post emerge tests as previously described in Research Methods in Weed Science, 2nd edition, B, Truelove, Ed., Southern Weed Science Society, Auburn University, Auburn, Ala., 1977. Briefly, “0” corresponds to no damage and “100” corresponds to complete death of all plants in the test unit. This scale was used both to determine efficacy against weed species and damage to crop species. Herbicide activity data for various compounds of this invention, which are shown by compound No. in Tables 1-3, are shown in Tables 5 and 6.

[2] = system: velvetleaf (Abutilon theophrasti, ABT); assay: Pre-emerge test, velvetleaf; conditions: 250 g ai/ha, 14 days after application, rating scale 0-100 (0 no damage, 100 complete death)
Description: as §1, §2, §3

[3] = system: sicklepod (Cassia obtusifolia, CAO); assay: Pre-emerge test, sicklepod; conditions: 250 g ai/ha, 14 days after application, rating scale 0-100 (0 no damage, 100 complete death)
Description: as §1, §2, §3

[4] = system: ivyleaf morningglory (Ipomoea hederacea, IPH); assay: Pre-emerge test, ivyleaf morningglory; conditions: 250 g ai/ha, 14 days after application, rating scale 0-100 (0 no damage, 100 complete death)
Description: as §1, §2, §3

[5] = system: lambsquarters (Chenopodium album, CHA); assay: Pre-emerge test, lambsquarters; conditions: 250 g ai/ha, 14 days after application, rating scale 0-100 (0 no damage, 100 complete death)
Description: as §1, §2, §3

[6] = system: common ragweed (Ambrosia artemisiifolia L., AML); assay: Pre-emerge test, common ragweed; conditions: 250 g ai/ha, 14 days after application, rating scale 0-100 (0 no damage, 100 complete death)
Description: as §1, §2, §3

[7] = system: cocklebur (Xanthium strumariunt, XAS); assay: Pre-emerge test, cocklebur; conditions: 250 g ai/ha, 14 days after application, rating scale 0-100 (0 no damage, 100 complete death)
Description: as §1, §2, §3

[8] = system: green foxtail (Setaria viridis, SEV); assay: Pre-emerge test, green foxtail; conditions: 250 g ai/ha, 14 days after application, rating scale 0-100 (0 no damage, 100 complete death)
Description: as §1, §2, §3

[9] = system: barnyardgrass (Echinachloa crus-galli, ECC); assay: Pre-emerge test, barnyardgrass; conditions: 250 g ai/ha, 14 days after application, rating scale 0-100 (0 no damage, 100 complete death)
Description: as §1, §2, §3

[10] = system: johnsongrass (Sorghum halepense, SOH); assay: Pre-emerge test, johnsongrass; conditions: 250 g ai/ha, 14 days after application, rating scale 0-100 (0 no damage, 100 complete death)
Description: as §1, §2, §3

[11] = system: large crabgrass (Digitaria sanguinalis, DIS); assay: Pre-emerge test, large crabgrass; conditions: 250 g ai/ha, 14 days after application, rating scale 0-100 (0 no damage, 100 complete death)
Description: as §1, §2, §3

[12] = system: field corn (Zea mays L., var. Dekalb 535, CORN); assay: Pre-emerge test, crop damage field corn; conditions: pre-emerge, 250 g ai/ha, 14 days after application, rating scale 0-100 (0 no damage, 100 complete death)
Description: as §1, §2, §3

[13] = system: soybean (Glycine max L., var. Pella 86, SOY); assay: Pre-emerge test, crop damage soybean; conditions: pre-emerge, 250 g ai/ha, 14 days after application, rating scale 0-100 (0 no damage, 100 complete death)
Description: as §1, §2, §3

[14] = system: upland rice (Oryza sp., var.Tebonnet, RICE); assay: Pre-emerge test, crop damage upland rice; conditions: pre-emerge, 250 g ai/ha, 14 days after application, rating scale 0-100 (0 no damage, 100 complete death)
Description: as §1, §2, §3

[15] = system: wheat (Triticum aestivum); assay: Pre-emerge test, crop damage wheat; conditions: pre-emerge, 250 g ai/ha, 14 days after application, rating scale 0-100 (0 no damage, 100 complete death)
Description: as §1, §2, §3

[16] = system: redroot pigweed (Amaranthus retroflexus, AMR); assay: Post-emerge test, redroot pigweed; conditions: 250 g ai/ha, 14 days after application, rating scale 0-100 (0 no damage, 100 complete death)
Description: as §1, §2
(§4) For post-emerge tests, seeds were planted 8-21 days prior to the test to allow emergence and good foliage development prior to application of the test substances. At the time of the post-emerge application, plants of all species were usually at the 2-3 leaf stage of development. In the postemerge test, a commercial non-ionic surfactant was also included (0.25% v/v) to enhance wetting of the leaf surfaces of target plants.
as §3

[17] = system: velvetleaf (Abutilon theophrasti, ABT); assay: Post-emerge test, velvetleaf; conditions: 250 g ai/ha, 14 days after application, rating scale 0-100 (0 no damage, 100 complete death)
Description: as §1, §2, §4, §3

[18] = system: sicklepod (Cassia obtusifolia, CAO); assay: Post-emerge test, sicklepod; conditions: 250 g ai/ha, 14 days after application, rating scale 0-100 (0 no damage, 100 complete death)
Description: as §1, §2, §4, §3

[19] = system: ivyleaf morningglory (Ipomoea hederacea, IPH); assay: Post-emerge test, ivyleaf morningglory; conditions: 250 g ai/ha, 14 days after application, rating scale 0-100 (0 no damage, 100 complete death)
Description: as §1, §2, §4, §3

[20] = system: lambsquarters (Chenopodium album, CHA); assay: Post-emerge test, lambsquarters; conditions: 250 g ai/ha, 14 days after application, rating scale 0-100 (0 no damage, 100 complete death)
Description: as §1, §2, §4, §3

[21] = system: common ragweed (Ambrosia artemisiifolia L., AML); assay: Post-emerge test, common ragweed; conditions: 250 g ai/ha, 14 days after application, rating scale 0-100 (0 no damage, 100 complete death)
Description: as §1, §2, §4, §3

[22] = system: cocklebur (Xanthium strumariunt, XAS); assay: Post-emerge test, cocklebur; conditions: 250 g ai/ha, 14 days after application, rating scale 0-100 (0 no damage, 100 complete death)
Description: as §1, §2, §4, §3

[23] = system: green foxtail (Setaria viridis, SEV); assay: Post-emerge test, green foxtail; conditions: 250 g ai/ha, 14 days after application, rating scale 0-100 (0 no damage, 100 complete death)
Description: as §1, §2, §4, §3

[24] = system: barnyardgrass (Echinachloa crus-galli, ECC); assay: Post-emerge test, barnyardgrass; conditions: 250 g ai/ha, 14 days after application, rating scale 0-100 (0 no damage, 100 complete death)
Description: as §1, §2, §4, §3

[25] = system: johnsongrass (Sorghum halepense, SOH); assay: Post-emerge test, johnsongrass; conditions: 250 g ai/ha, 14 days after application, rating scale 0-100 (0 no damage, 100 complete death)
Description: as §1, §2, §4, §3

[26] = system: large crabgrass (Digitaria sanguinalis, DIS); assay: Post-emerge test, large crabgrass; conditions: 250 g ai/ha, 14 days after application, rating scale 0-100 (0 no damage, 100 complete death)
Description: as §1, §2, §4, §3

[27] = system: field corn (Zea mays L., var. Dekalb 535, CORN); assay: Post-emerge test, crop damage field corn; conditions: post-emerge, 250 g ai/ha, 14 days after application, rating scale 0-100 (0 no damage, 100 complete death)
Description: as §1, §2, §4, §3

[28] = system: soybean (Glycine max L., var. Pella 86, SOY); assay: Post-emerge test, crop damage soybean; conditions: post-emerge, 250 g ai/ha, 14 days after application, rating scale 0-100 (0 no damage, 100 complete death)
Description: as §1, §2, §4, §3

[29] = system: upland rice (Oryza sp., var.Tebonnet, RICE); assay: Post-emerge test, crop damage upland rice; conditions: post-emerge, 250 g ai/ha, 14 days after application, rating scale 0-100 (0 no damage, 100 complete death)
Description: as §1, §2, §4, §3

[30] = system: wheat (Triticum aestivum); assay: Post-emerge test, crop damage wheat; conditions: post-emerge, 250 g ai/ha, 14 days after application, rating scale 0-100 (0 no damage, 100 complete death)
Description: as §1, §2, §4, §3

Row | SMILES | Pre-emerge Herbicidal Activity AMR (phytotoxicity rating) [1] | Pre-emerge Herbicidal Activity ABT (phytotoxicity rating) [2] | Pre-emerge Herbicidal Activity CAO (phytotoxicity rating) [3] | Pre-emerge Herbicidal Activity IPH (phytotoxicity rating) [4] | Pre-emerge Herbicidal Activity CHA (phytotoxicity rating) [5] | Pre-emerge Herbicidal Activity AML (phytotoxicity rating) [6] | Pre-emerge Herbicidal Activity XAS (phytotoxicity rating) [7] | Pre-emerge Herbicidal Activity SEV (phytotoxicity rating) [8] | Pre-emerge Herbicidal Activity ECC (phytotoxicity rating) [9] | Pre-emerge Herbicidal Activity SOH (phytotoxicity rating) [10] | Pre-emerge Herbicidal Activity DIS (phytotoxicity rating) [11] | Pre-emerge crop damage CORN (phytotoxicity rating) [12] | Pre-emerge crop damage SOY (phytotoxicity rating) [13] | Pre-emerge crop damage RICE (phytotoxicity rating) [14] | Pre-emerge crop damage WHEAT (phytotoxicity rating) [15] | Post-emerge Herbicidal Activity AMR (phytotoxicity rating) [16] | Post-emerge Herbicidal Activity ABT (phytotoxicity rating) [17] | Post-emerge Herbicidal Activity CAO (phytotoxicity rating) [18] | Post-emerge Herbicidal Activity IPH (phytotoxicity rating) [19] | Post-emerge Herbicidal Activity CHA (phytotoxicity rating) [20] | other results
1 | Cn1nc(-c2c(F)cc3c4c2NC(=O)C(C)(C)N4C(=O)CO3)c(Cl)c1OC(F)F [1-27] | 100 | 100 | 100 | 100 | 100 | 100 | 80 | 100 | 100 | 100 | 100 | 55 | 35 | 85 | 80 | 100 | 100 | 100 | 100 | 100 | Post-emerge Herbicidal Activity AML (phytotoxicity rating) [21]: 98; Post-emerge Herbicidal Activity XAS (phytotoxicity rating) [22]: 100; Post-emerge Herbicidal Activity SEV (phytotoxicity rating) [23]: 100; Post-emerge Herbicidal Activity ECC (phytotoxicity rating) [24]: 100; Post-emerge Herbicidal Activity SOH (phytotoxicity rating) [25]: 75; Post-emerge Herbicidal Activity DIS (phytotoxicity rating) [26]: 60; Post-emerge crop damage CORN (phytotoxicity rating) [27]: 60; Post-emerge crop damage SOY (phytotoxicity rating) [28]: 100; Post-emerge crop damage RICE (phytotoxicity rating) [29]: 90; Post-emerge crop damage WHEAT (phytotoxicity rating) [30]: 75
2 | Cc1nn(-c2c(F)cc3c4c2NC(=O)CN4C(=O)CO3)c(=O)n1C(F)F [1-73] | 100 | 100 | 90 | 100 | 100 | 80 | 65 | 100 | 100 | 100 | 100 | 100 | 60 | 100 | 90 | 30 | 65 | 0 | 55 | 90 | Post-emerge Herbicidal Activity AML (phytotoxicity rating) [21]: 50; Post-emerge Herbicidal Activity XAS (phytotoxicity rating) [22]: 40; Post-emerge Herbicidal Activity SEV (phytotoxicity rating) [23]: 50; Post-emerge Herbicidal Activity ECC (phytotoxicity rating) [24]: 0; Post-emerge Herbicidal Activity SOH (phytotoxicity rating) [25]: 0; Post-emerge Herbicidal Activity DIS (phytotoxicity rating) [26]: 0; Post-emerge crop damage CORN (phytotoxicity rating) [27]: 0; Post-emerge crop damage SOY (phytotoxicity rating) [28]: 60; Post-emerge crop damage RICE (phytotoxicity rating) [29]: 75; Post-emerge crop damage WHEAT (phytotoxicity rating) [30]: 0
3 | CC1C(=O)Nc2c(-c3ncc(C(F)(F)F)cc3Cl)c(F)cc3c2N1C(=O)CO3 (stereo not drawn) [1-64] | 100 | 100 | 100 | 100 | 100 | 100 | 100 | 100 | 100 | 100 | 100 | 100 | 99 | 95 | 90 | 100 | 100 | 85 | 100 | 100 | Post-emerge Herbicidal Activity AML (phytotoxicity rating) [21]: 95; Post-emerge Herbicidal Activity XAS (phytotoxicity rating) [22]: 100; Post-emerge Herbicidal Activity SEV (phytotoxicity rating) [23]: 100; Post-emerge Herbicidal Activity ECC (phytotoxicity rating) [24]: 100; Post-emerge Herbicidal Activity SOH (phytotoxicity rating) [25]: 85; Post-emerge Herbicidal Activity DIS (phytotoxicity rating) [26]: 40; Post-emerge crop damage CORN (phytotoxicity rating) [27]: 5; Post-emerge crop damage SOY (phytotoxicity rating) [28]: 100; Post-emerge crop damage RICE (phytotoxicity rating) [29]: 0; Post-emerge crop damage WHEAT (phytotoxicity rating) [30]: 15
